Laboratory results: patent US7531539B2, “Pyrrolotriazine kinase inhibitors” (Bristol-Myers Squibb Company, priority 2006, dated 2009)

Columns and labels:
Assay type in all cases: biochemical
[1] = target: Casein Kinase 2 A1 kinase (Homo sapiens, UniProt P68400); assay: CK2A1 kinase assay (33P, TCA precipitation)
Experimental: (§1) Incubation mixtures employed for the Casein Kinase 2 A1 kinase assay contain Casecin Kinase 2 A1 kinase, a synthetic peptide substrate, ATP, ATP-γ-^33 P and a Hepes buffer containing Mg^2+, NaCl, DTT, and Brij-35. Reactions were incubated for 60 minutes at 30° C. and stopped by the addition of trichloroacetic acid (TCA) to a final concentration 8%. TCA precipitates were collected onto GF/C unifilter plates using a Filtermate universal harvester and the filters are quantitated using a TopCount 96/384-well liquid scintillation counter. Dose response curves were generated to determine the concentration required to inhibit 50% of kinase activity (IC50). Compounds were dissolved at 10 mM in dimethyl sulfoxide (DMSO) and evaluated at ten concentrations, each in duplicate. The final concentration of DMSO in the assay is 1.7%. IC50 values were derived by non-linear regression.

[2] = target: Casein Kinase 2 A2 kinase (Homo sapiens, UniProt P19784); assay: CK2A2 kinase assay (33P, TCA precipitation)
Casein Kinase 2 A2 kinase, sequence (P19784 whole entry): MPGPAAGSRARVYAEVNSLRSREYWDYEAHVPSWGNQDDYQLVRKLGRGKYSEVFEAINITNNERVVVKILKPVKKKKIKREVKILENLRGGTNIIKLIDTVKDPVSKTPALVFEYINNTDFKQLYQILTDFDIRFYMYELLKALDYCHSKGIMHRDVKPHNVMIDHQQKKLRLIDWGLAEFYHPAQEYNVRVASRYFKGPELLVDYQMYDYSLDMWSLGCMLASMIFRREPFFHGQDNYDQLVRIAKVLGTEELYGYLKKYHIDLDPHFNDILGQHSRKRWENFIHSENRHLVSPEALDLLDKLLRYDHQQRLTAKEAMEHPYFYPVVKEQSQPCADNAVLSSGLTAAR
Experimental: as §1, with “A2” for “A1”, “Casein” for “Casecin”, “ATP-γ^33P” for “ATP-γ-^33 P”, “Mg^++,” for “Mg^2+,”, “(IC^50).” for “(IC50).”

[3] = target: T1, kinase domain of the human TrkA receptor (Homo sapiens, UniProt P04629); assay: TrkA tyrosine kinase assay (33P, polyGluTyr substrate); details: 30 uM ATP, 0.1 mg/ml PGT
T1 construct: The kinase domain of the human TrkA receptor is expressed in Sf9 insect cells as a histidine (His)-fusion protein; His; made in house; host or cells: Sf9 insect cells (baculovirus)
T1 sequence (P04629 510-781 limits assumed): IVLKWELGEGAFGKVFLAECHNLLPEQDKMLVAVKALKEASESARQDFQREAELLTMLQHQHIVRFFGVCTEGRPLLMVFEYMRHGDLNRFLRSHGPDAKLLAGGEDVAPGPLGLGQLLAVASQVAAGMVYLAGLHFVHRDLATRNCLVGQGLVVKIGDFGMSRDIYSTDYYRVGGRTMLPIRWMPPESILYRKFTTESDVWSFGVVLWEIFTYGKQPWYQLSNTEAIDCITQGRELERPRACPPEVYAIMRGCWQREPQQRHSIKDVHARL
Description: The ability of compounds of the present invention to inhibit tyrosine kinase activity of TrkA may be measured using a recombinant enzyme in an assay that measures the ability of compounds to inhibit the phosphorylation of the exogenous substrate, polyGluTyr (PGT, 4:1). The kinase domain of the human TrkA receptor is expressed in Sf9 insect cells as a histidine (His)-fusion protein using a baculovirus expression system. The protein is purified from the lysates of these cells using an Ni—NTA affinity column. After the recombinant enzyme is purified, it is activated by incubation with cold ATP. The enzyme assay is performed in a 96-well plate. Test compounds are first dissolved in dimethylsulfoxide (DMSO) and then serially-diluted in a 96-well plate. The serially-diluted compounds are transferred to the 96-well assay plate so that the final concentration of DMSO in the enzyme assay is 1.64%. All assay components are diluted in phosphorylation buffer (20 mm MOPS, 10 mM MgCl2, 1 mM EDTA, 0.015% Brij-35, […], 0.0025% Beta-Mercaptoethanol). The recombinant enzyme is added to the assay plate containing test compound and the reaction is initiated with a substrate solution containing a final concentration of 0.1 mg/ml PGT, 30 uM ATP, and 0.008 mCi/ml ^33P-gammaATP (3000 Ci/mmol). After a 1 hour incubation at 30° C., the reaction is terminated with 10% TCA and incubated at 4° C. for 1 hour. The reaction is filtered onto a Unifilter® GF/C™ filter plate that has been presoaked with 0.1M NaPyrophosphate. Microscint-20 is then added to the dried filter plate and the captured ^33P-phosphorylated PGT is quantitated on a microscintillation plate counter (TopCount.NXT™). Inhibition of the kinase enzymatic activity by the test compound is detected by a reduction in scintillation, and the concentration of compound that is required to inhibit the signal by 50% is reported as the IC50 value for the test compound.
(§2) Compounds described herein were tested in the TrkA and TrkB assays described above.

[4] = target: T2, kinase domain of the human TrkB receptor (amino acids 526-838) (Homo sapiens, UniProt Q16620); assay: TrkB tyrosine kinase assay (33P, polyGluTyr substrate); details: 30 uM ATP, 0.1 mg/ml PGT
T2 construct: human TrkB receptor (amino acids 526-838); His; purchased Invitrogen; host or cells: insect cells
T2 sequence (Q16620 510-822): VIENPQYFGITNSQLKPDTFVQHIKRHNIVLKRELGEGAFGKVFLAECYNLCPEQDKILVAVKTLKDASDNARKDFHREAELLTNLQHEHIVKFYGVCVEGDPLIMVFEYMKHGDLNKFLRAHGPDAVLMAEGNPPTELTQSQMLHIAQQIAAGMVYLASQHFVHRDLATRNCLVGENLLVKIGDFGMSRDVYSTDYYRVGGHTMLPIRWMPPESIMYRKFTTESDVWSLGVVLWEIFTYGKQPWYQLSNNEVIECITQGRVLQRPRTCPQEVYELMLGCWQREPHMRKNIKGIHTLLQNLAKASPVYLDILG
Experimental: The ability of compounds of the present invention to inhibit tyrosine kinase activity of TrkB may be measured using a recombinant enzyme in an assay that measures the ability of compounds to inhibit the phosphorylation of the exogenous substrate, polyGluTyr (PGT, 4:1). The kinase domain of the human TrkB receptor (amino acids 526-838) is expressed in insect cells as a histidine (His)-fusion protein and is commercially available from Invitrogen™. The enzyme assay is performed in a 96-well plate. Test compounds are first dissolved in dimethylsulfoxide (DMSO) and then serially-diluted in a 96-well plate. The serially-diluted compounds are transferred to the 96-well assay plate so that the final concentration of DMSO in the enzyme assay is 1.64%. All assay components are diluted in phosphorylation buffer (20 mm MOPS, 10 mM MgCl2, 1 mM EDTA, 0.015% Brij-35, 0.1 mg/ml BSA, 0.0025% Beta-Mercaptoethanol). The recombinant enzyme is added to the assay plate containing test compound and the reaction is initiated with a substrate solution containing a final concentration of 0.1 mg/ml PGT, 30 uM ATP, and 0.008 mCi/ml ^33P-gammaATP (3000 Ci/mmol). After a 1 hour incubation at 30° C., the reaction is terminated with 10% TCA and incubated at 4° C. for 1 hour. The reaction is filtered onto a Unifilter® GF/C™ filter plate that has been pre-soaked with 0.1M NaPyrophosphate. Microscint-20 is then added to the dried filter plate and the captured ^33P-phosphorylated PGT is quantitated on a microscintillation plate counter (TopCount.NXT™). Inhibition of the kinase enzymatic activity by the test compound is detected by a reduction in scintillation, and the concentration of compound that is required to inhibit the signal by 50% is reported as the IC50 value for the test compound.
as §2

Casein Kinase 2 A1 kinase, sequence (P68400 whole entry): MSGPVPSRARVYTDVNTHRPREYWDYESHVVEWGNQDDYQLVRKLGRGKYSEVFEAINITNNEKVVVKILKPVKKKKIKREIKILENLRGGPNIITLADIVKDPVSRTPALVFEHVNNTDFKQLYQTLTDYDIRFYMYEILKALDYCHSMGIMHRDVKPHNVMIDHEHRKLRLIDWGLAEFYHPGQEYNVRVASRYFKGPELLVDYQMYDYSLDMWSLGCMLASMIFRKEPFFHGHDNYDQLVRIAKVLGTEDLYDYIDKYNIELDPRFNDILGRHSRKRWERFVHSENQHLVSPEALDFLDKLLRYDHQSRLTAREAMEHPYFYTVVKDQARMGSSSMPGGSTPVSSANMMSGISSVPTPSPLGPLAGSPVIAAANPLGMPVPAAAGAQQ

Row | Compound | IC50 [1] [nM] | IC50 [2] [nM] | IC50 [3] [nM] | IC50 [4] [nM]
1 | 2-(3-(2-methoxyphenyl)pyrrolidin-1-yl)-N-(3-methyl-1H-pyrazol-5-yl)pylTolo[1,2-f][1,2,4]triazin-4-amine [Example 176] | 872 | 89 | – | –
2 | NC1CCN(c2nc(Nc3cc(C4CC4)n[nH]3)c3cccn3n2)CC1 [Example 3, 2-(4-amino-1-piperidinyl)-N-(3-cyclopropyl-1H-pyrazol-5-yl)pyrrolo[2,1-f][1,2,4]triazin-4-amine] | – | – | 0.6 | 2
3 | NC1CCN(c2nc(Nc3ccn[nH]3)c3cccn3n2)CC1 [Example 4, 2-(4-amino-1-piperidinyl)-N-1H-pyrazol-5-ylpyrrolo[2,1-f][1,2,4]triazin-4-amine] | – | – | 123 | 312
4 | c1ccc(CNC2CCN(c3nc(Nc4cc(C5CC5)n[nH]4)c4cccn4n3)CC2)cc1 [Example 8, 2-(4-(benzylamino)-1-piperidinyl)-N-(3-cyclopropyl-1H-pyrazol-5-yl)pyrrolo[2,1-f][1,2,4]triazin-4-amine] | – | – | 0.3 | 0.3
5 | NC1CCN(c2nc(Nc3cc(OCC4CC4)n[nH]3)c3cccn3n2)CC1 [Example 14, 2-(4-amino-1-piperidinyl)-N-(3-(cyclopropylmethoxy)-1H-pyrazol-5-yl)pyrrolo[2,1-f][1,2,4]triazin-4-amine] | – | – | 1 | 3
6 | C[C@H]1C[C@@H]1c1cc(Nc2nc(N3CCC(N)CC3)nn3cccc23)[nH]n1 [Example 18, 2-(4-amino-1-piperidinyl)-N-(3-((1S,2S)-2-methylcyclopropyl)-1H-pyrazol-5-yl)pyrrolo[2,1-f][1,2,4]triazin-4-amine] | – | – | 0.8 | 1
7 | CCC(C)c1cc(Nc2nc(N3CCC(N)CC3)nn3cccc23)[nH]n1 (stereo not drawn) [Example 19, 2-(4-amino-1-piperidinyl)-N-(3-sec-butyl-1H-pyrazol-5-yl)pyrrolo[2,1-f][1,2,4]triazin-4-amine] | – | – | 9 | 20
8 | CC(C)(C)c1cc(Nc2nc(N3CCC(N)CC3)nn3cccc23)[nH]n1 [Example 21, 2-(4-amino-1-piperidinyl)-N-(3-tert-butyl-1H-pyrazol-5-yl)pyrrolo[2,1-f][1,2,4]triazin-4-amine] | – | – | 56 | 86
9 | N#CCC(=O)NC1CCN(c2nc(Nc3cc(C4CC4)n[nH]3)c3cccn3n2)CC1 [Example 39, 2-cyano-N-(1-(4-((3-cyclopropyl-1H-pyrazol-5-yl)amino)pyrrolo[2,1-f][1,2,4]triazin-2-yl)-4-piperidinyl)acetamide] | – | – | 1 | 0.7
10 | O=C(CCc1ccccc1)NC1CCN(c2nc(Nc3cc(C4CC4)n[nH]3)c3cccn3n2)CC1 [Example 43, N-(1-(4-((3-cyclopropyl-1H-pyrazol-5-yl)amino)pyrrolo[2,1-f][1,2,4]triazin-2-yl)-4-piperidinyl)-3-phenylpropanamide] | – | – | 0.4 | 0.5
11 | O=C(Cc1cccs1)NC1CCN(c2nc(Nc3cc(C4CC4)n[nH]3)c3cccn3n2)CC1 [Example 49, N-(1-(4-((3-cyclopropyl-1H-pyrazol-5-yl)amino)pyrrolo[2,1-f][1,2,4]triazin-2-yl)-4-piperidinyl)-2-(2-thienyl)acetamide] | – | – | 0.9 | 0.6
12 | Cc1cc(Nc2nc(N3CC[C@@H](O)C3)nn3cccc23)n[nH]1 [Example 70, (3R)-1-(4-((5-methyl-1H-pyrazol-3-yl)amino)pyrrolo[2,1-f][1,2,4]triazin-2-yl)-3-pyrrolidinol] | – | – | 23 | 38
13 | Cc1cc(Nc2nc(N3CCNCC3)nn3cccc23)n[nH]1 [Example 74, N-(5-methyl-1H-pyrazol-3-yl)-2-(1-piperazinyl)pyrrolo[2,1-f][1,2,4]triazin-4-amine] | – | – | 120 | 195
14 | Cc1cc(Nc2nc(N3CCCC3)nn3cccc23)n[nH]1 [Example 75, N-(5-methyl-1H-pyrazol-3-yl)-2-(1-pyrrolidinyl)pyrrolo[2,1-f][1,2,4]triazin-4-amine] | – | – | 5 | 9

Results, then the compound that gave them:

Row | IC50 [1] [nM] | IC50 [2] [nM] | IC50 [3] [nM] | IC50 [4] [nM] | Compound
15 | – | – | 5 | 10 | N[C@H]1CCN(c2nc(Nc3cc(C4CC4)n[nH]3)c3cccn3n2)C1 [Example 91]
16 | – | – | 23 | 49 | Cc1cc(Nc2nc(N3CCOCC3)nn3cccc23)[nH]n1 [Example 95, N-(3-methyl-1H-pyrazol-5-yl)-2-(4-morpholinyl)pyrrolo [2,1-f][1,2,4]triazin-4-amine]
17 | – | – | 24 | 48 | NCC1CCN(c2nc(Nc3cc(-c4ccccc4)n[nH]3)c3cccn3n2)CC1 [Example 97, 2-(4-(aminomethyl)-1-piperidinyl)-N-(3-phenyl-1H-pyrazol-5-yl)pyrrolo[2,1-f][1,2,4]triazin-4-amine]
18 | 154 | 11 | – | – | CCc1cc(Nc2nc(N3CCC(c4ccccc4F)C3)nn3cccc23)[nH]n1 (stereo not drawn) [Example 171, N-(3-Ethyl-1H-pyrazol-5-yl)-2-(3-(2-fluorophenyl)pyrrolidin-1-yl)pyrrolo[1,2-f][1,2,4]triazin-4-amine]
19 | 670 | 91 | – | – | c1ccc(-c2cc(Nc3nc(N4CCC(c5cccnc5)C4)nn4cccc34)[nH]n2)cc1 (stereo not drawn) [Example 174, N-(3-phenyl-1H-pyrazol-5-yl)-2-(3-(pyridin-3-yl)pyrrolidin-1-yl)pyrrolo[1,2f][1,2,4]triazin-4-amine]
20 | 84 | 6 | – | – | c1cncc(C2CCN(c3nc(Nc4cc(C5CC5)n[nH]4)c4cccn4n3)C2)c1 (stereo not drawn) [Example 181, N-(3-cyclopropyl-1H-pyrazol-5-yl)-2-(3-(pyridin-3-yl)pyrrolidin-1-yl)pyrrolo[1,2-f][1,2,4]triazin-4-amine]
21 | 131 | 13 | – | – | CC1C[C@@H]1c1cc(Nc2nc(N3CCC(c4cccnc4)C3)nn3cccc23)[nH]n1 (stereo partly drawn) [Example 182, N-(3-((1S,2S)-2-methylcyclopropyl)-1H-pyrazol-5-yl)-2-(3-(pyridin-3-yl)pyrrolidin-1-yl)pyrrolo[1,2-f][1,2,4]triazin-4-amine]
